These results are taken from PMC9609317, “Evaluation of Metabolism of a Defined Pesticide Mixture through Multiple In Vitro Liver Models” (Toxics, 2022).

Structures are written as SMILES.

The first series relates to induced pluripotent stem cell-derived hepatocytes (iHep) suspension. Kind of series: In vitro hepatocyte clearance in iHep suspension, targeted LC-MS/MS and GC-MS/MS. Particulars: 1 µM equimolar mixture, approximate values. It counts as in vitro ADME, human. The method, then:
(§1) Suspension assays using iHep were performed as previously detailed with slight modification. In brief, pre-differentiated iHep were suspended in iHep maintenance media and adjusted to the cell concentration of 1 × 10^6 cells/mL. A portion of the cell working stock was heated at 95 °C for five minutes to serve as negative control. Five hundred microliters of the chemical stock (20 chemicals, 2 or 10 µM each) were spiked in 500 µL of the cell working stock or heat-inactivated cell control to a final cell density of 5 × 10^5 cells/mL. Fifty microliters were removed subsequently at 0, 60, 120, and 240 min to individual 1.5 mL Eppendorf tubes for further sample extraction detailed below. Each experimental condition was replicated three times.
Sample extraction procedures and chromatographic conditions were previously reported in [34]. In brief, each sample (50 µL) was spiked with 10 µL of 10 µM internal standards, mixed with 100 µL of chilled acetonitrile, and then centrifuged at 10,000× g for 5 min. The supernatant was dried under vacuum using SpeedVac (Savant SPD1010, Beckman Coulter, Brea, CA, USA) and reconstituted with 50 µL of aqueous mobile phase prior to analyses. LC-MS/MS analysis was performed using 1290 Infinity II LC and 6470 triple quadrupole mass spectrometer (both instruments from Agilent Technologies, Santa Clara, CA, USA). Sample extract (10 µL) was chromatographed on a ZORBAX SSHD Eclipse Plus C18 column (3.0 × 50 mm, 1.8 µm, Cat No.: 959757-302; Agilent Technologies) with a guard column (2.1 × 5 mm, 1.8 µm, Cat No.: 821725-901; Agilent Technologies), and ionized using electrospray ionization. Analytical response was acquired in both positive and negative modes.
For positive ion compounds, mobile phases consisted of 0.1% formic acid in water (A) and 0.1% formic acid in methanol (B) using the following gradient: 2% B held for 1 min, B increased to 80% by 3 min, B increased to 95% by 4 min, B decreased to 2% by 5 min and held for 3 min for a total run time of 8 min per sample at a flow rate of 0.4 mL/min. For negative ion compounds, the LC gradient and flow rate were the same as in positive mode, except that mobile phase A was water and mobile phase B was acetonitrile.
Fifty microliters of media sample were spiked with 10 µL of 10 µM internal standards, mixed with 50 µL of methanol and 200 µL of pentane: diethyl ether (1:1 v/v), vortexed briefly, and then centrifuged at 600× g for 5 min. Organic layer supernatants were transferred to a 2 mL amber vial and concentrated under nitrogen prior to GC analysis. Detection of analytes was achieved using a 7890B GC and 7010B triple quadrupole mass spectrometer (both from Agilent Technologies). Samples were injected (1 µL) in splitless mode. Analytes were separated with a VF-5ms GC column (60 m × 250 µm × 0.25 µm, Cat No.: CP8960; Agilent Technologies) and ionized using electron ionization. The column head pressure was set at 21.5 psi (148,237 Pa) with a constant flow rate at 1.2 mL/min using helium gas. Initial column temperature was held at 70 °C for 5 min, increased to 150 °C at 50 °C/min, ramped to 280 °C at 4 °C/min, and then held […]. The total run time was 42.1 min. The injector temperature was set at 250 °C. The ion source and auxiliary transfer line temperatures were 300 °C. Electron multiplier voltage was set at 1884 V. Ultra-high purity nitrogen gas was used as the collision gas for all MS/MS experiments, and collision gas pressure was set at 16.8 psi (115,832 Pa).
In vitro hepatocyte clearance (Clin vitro) of each chemical was estimated by substrate depletion approach assuming first-order kinetics for compound elimination: Clin vitro = kV/N, where k = first-order elimination rate constant, V = incubation volume, and N = number of cells in the incubation. […]
Turning to `O=[N+]([O-])c1ccc(O)c([N+](=O)[O-])c1` [2,4-Dinitrophenol], the “Clearance rate in suspension cultures” value fell in the range of 5 to 14 µL/min/10^6 hepatocytes.
The same measure, in the same setting: the result for `COP(=S)(OC)SCn1nnc2ccccc2c1=O` [Azinphos-methyl] reads 5 to 14 µL/min/10^6 hepatocytes; that for `CCOP(=S)(OCC)Oc1nc(Cl)c(Cl)cc1Cl` [Chlorpyrifos], 5 to 14 µL/min/10^6 hepatocytes; that for `CCOP(=S)(OCC)Oc1cc(C)nc(C(C)C)n1` [Diazinon], 5 to 14 µL/min/10^6 hepatocytes.
Same read-out and setting: the same measure for `CCOP(=S)(OCC)SCCSCC` [Disulfoton]: 5 to 14 µL/min/10^6 hepatocytes; for `CCOP(=S)(OCC)SCSP(=S)(OCC)OCC` [Ethion]: 5 to 14 µL/min/10^6 hepatocytes.

For a further series the test system is unchanged. In words: iHep suspension, nontargeted IMS-MS analysis (clearance, metabolite formation, mass balance). Particulars: 1µM mixture. It counts as in vitro ADME, human. On the procedure: as §1
All nontargeted analyses were performed using a 6560 IMS-QTOF MS (Agilent Technologies) as detailed previously. All individual standards for pesticide parent compounds (n = 20) and known metabolites (n = 10) were directly injected in triplicate into the electrospray ionization (ESI) source (positive and negative mode) and atmospheric pressure photo-ionization (APPI, negative mode only) to obtain collision cross section (CCS) and mass-to-charge ratio (m/z) values. Blanks were injected between standards to reduce the likelihood of carryover. For sample analyses, ESI was chosen as the optimal source to detect analytes in either positive or negative mode. During IMS-MS analyses, ions were passed through the inlet glass capillary, focused by a high-pressure ion funnel, and accumulated in an ion funnel trap. Next, ions were pulsed into the 78.24 cm-long IMS drift tube filled with nitrogen gas at a pressure of approximately 3.95 torr (527 Pa). Ions exiting the drift tube were refocused by a rear ion funnel prior to quadrupole time-of-flight (QTOF) MS detection. Detailed instrumental settings in ESI mode can be found in Table S1. Prior to instrumental analysis, the IMS-MS was tuned and a mass calibration was performed using Agilent Tune Mix from the manufacturer (Cat No.: G2421-60001, Agilent Technologies).
In vitro hepatocyte clearance (Clin vitro) of each chemical was estimated by substrate depletion approach assuming first-order kinetics for compound elimination: Clin vitro = kV/N, where k = first-order elimination rate constant, V = incubation volume, and N = number of cells in the incubation. Clin vitro was further scaled up to the intrinsic hepatocyte clearance (Clint) according to the equation [38]:Clint = Clin vitro × HPGL × Vl(1) where HPGL = hepatocytes per gram liver (137 × 10^6 cells/g) and Vl = volume of the whole liver (1820 g).
As for `O=[N+]([O-])c1ccc(O)c([N+](=O)[O-])c1` [2,4-Dinitrophenol], the “CLHep average, Nontargeted Analyses (IMS-MS)” value is 8.886 µL/min/106 hepatocytes.
Same read-out and setting: the result for `COP(=S)(OC)SCn1nnc2ccccc2c1=O` [Azinphos-methyl] reads 8.987 µL/min/106 hepatocytes; that for `CCOP(=S)(OCC)Oc1nc(Cl)c(Cl)cc1Cl` [Chlorpyrifos], 7.82 µL/min/106 hepatocytes; that for `CCOP(=S)(OCC)Oc1cc(C)nc(C(C)C)n1` [Diazinon], 2.285 µL/min/106 hepatocytes.
On the same count and under the same terms, the result for `CCOP(=S)(OCC)SCCSCC` [Disulfoton] reads 5.305 µL/min/106 hepatocytes; that for `CCOP(=S)(OCC)SCSP(=S)(OCC)OCC` [Ethion], 5.216 µL/min/106 hepatocytes.

The same series, now with this note: 1 µM mixture, % remaining by IMS-MS.
As to `O=[N+]([O-])c1ccc(O)c([N+](=O)[O-])c1` [2,4-Dinitrophenol], the “Level of metabolism through nontargeted methods” value (from here on “Level”) was “high levels of metabolism”.
As to `COP(=S)(OC)SCn1nnc2ccccc2c1=O` [Azinphos-methyl], the “Level” value is “high levels of metabolism”.
`CCOP(=S)(OCC)Oc1nc(Cl)c(Cl)cc1Cl` [Chlorpyrifos]: the “Level” value was “high levels of metabolism”.
On the same count and under the same terms, the same measure for `CCOP(=S)(OCC)SCCSCC` [Disulfoton]: “high levels of metabolism”.
In the case of `CCOP(=S)(OCC)SCSP(=S)(OCC)OCC` [Ethion], the “Level” value is “high levels of metabolism”.

The series is the same for the next values; noted with them: 1 µM mixture, relative abundance among the five detected metabolites.
For the compound `CCOP(O)(=S)OCC` [diethylthiophosphate], the “Metabolite formation (IMS-MS abundance)” value is “formed at the highest amount”.
